Measured values reported in patent publication US8022061B2, “N-aryl pyrazole compounds, compositions, and methods for their use” (Amgen Inc., priority 2006, dated 2011).

Legend:
C57B6 mice = assay: Glucose lowering effect after oral glucose challenge in C57B6 mice; assay type: in vivo; details: male C57B6 mice, p.o. 30 minutes before oral glucose 3 g/kg; blood glucose before, 20 and 50 minutes after challenge; relative to control group
Protocol: The following example describes the glucose lowering effect of compounds observed in vivo.
Male C57B6 mice were placed into control and treatment groups having similar averages of body weights. Then, animals were dosed with vehicle (control group) or test article (5 ml/kg, p.o.). Thirty minutes after dosing, glucose (3 g/kg) was orally administered in each animal. Blood samples were collected just before, 20 minutes and 50 minutes after glucose challenge and glucose concentrations in the samples was assessed. The values in Table 2 represent the observed % AUC reduction of blood glucose in the treated animals relative to the control group.

ob/ob mice = assay: Increase of circulating insulin concentrations in treated ob/ob mice; assay type: in vivo; details: male ob/ob mice, dose 10 mg/kg p.o., 10 minutes after dosing, relative to control group
Protocol: The results presented below exemplify that administration of the compounds as provided herein to an art-recognized animal model of human diabetes can lead to increased circulating insulin concentrations in the animal model.
Male ob/ob mice were weighed and bled from tail vein, and blood glucose levels were determined with a glucometer. Animals were placed into control and treatment groups having similar averages of glucose levels and body weights. In the morning of the following day, animals were dosed with vehicle (control group) or test article (5 ml/kg, p.o.). Blood samples were collected just before and 10 minutes after dosing, and the samples were assayed for insulin and glucose concentrations.
Table 1 provides exemplary data showing the increase of circulating insulin concentrations (expressed as ng/ml) in treated mice relative to control group at 10 minutes after dosing the treated mice. Concentrations of the exemplary compound tested in the mice are provided in the righthand column.

Structure (SMILES): COCc1c(C(=O)NCc2c(CO)ncn2C)cnn1-c1ncc(C)c(-c2ccoc2)n1 [1-[4-(3-Furyl)-5-methylpyrimidin-2-yl]-N-[{4-(hydroxymethyl)-1-methyl-1H-imidazol-5-yl]methyl}-5-(methoxymethyl)-1H-pyrazole-4-carboxamide]
- % AUC reduction in glucose levels (C57B6 mice): 29%

Structure (SMILES): CCOCc1c(C(=O)NCc2c(CO)ncn2C)cnn1-c1ncc(C)c(N2CCc3ccccc3C2)n1 [1-[4-(3,4-Dihydroisoquinolin-2(1H)-yl)-5-methylpyrimidin-2-yl]-5-(ethoxymethyl)-N-{[4-(hydroxymethyl)-1-methyl-1H-imidazol-5-yl]methyl}-1H-pyrazole-4-carboxamide]
- % AUC reduction in glucose levels (C57B6 mice): 63%

Structure (SMILES): CCCCc1c(C(=O)NCc2cnc3ccccn23)cnn1-c1ncc(C)c(N2CCCC2)n1 [5-Butyl-N-(imidazo[1,2-a]pyridin-3-ylmethyl)-1-(5-methyl-4-pyrrolidin-1-ylpyrimidin-2-yl)-1H-pyrazole-4-carboxamide]
- % AUC reduction in glucose levels (C57B6 mice): 34%

Structure (SMILES): CCCc1c(C(=O)NCc2c(CO)ncn2C)cnn1-c1ncc(C)c(N2CCOCC2)n1 [N-{[4-(Hydroxymethyl)-1-methyl-1H-imidazol-5-yl]methyl}-1-(5-methyl-4-morpholin-4-ylpyrimidin-2-yl)-5-propyl-1H-pyrazole-4-carboxamide]
- % AUC reduction in glucose levels (C57B6 mice): 6%

Structure (SMILES): CCOCc1c(C(=O)NCc2cncn2C)cnn1-c1ncc(C)c(-c2ccsc2)n1 [5-(Ethoxymethyl)-N-[(1-methyl-1H-imidazol-5-yl)methyl]-1-[5-methyl-4-(3-thienyl)pyrimidin-2-yl]-1H-pyrazole-4-carboxamide]
- % AUC reduction in glucose levels (C57B6 mice): 51%

Structure (SMILES): CCOCc1c(C(=O)NCc2c(CO)ncn2C)cnn1-c1ncc(Cl)c(-c2cccs2)n1 [1-[5-Chloro-4-(2-thienyl)pyrimidin-2-yl]-5-(ethoxymethyl)-N-{[4-(hydroxymethyl)-1-methyl-1H-imidazol-5-yl]methyl}-1H-pyrazole-4-carboxamide]
- % AUC reduction in glucose levels (C57B6 mice): 41%

Structure (SMILES): CCOCc1c(C(=O)NCc2cncn2C)cnn1-c1ncc(C)c(-c2ccco2)n1 [5-(Ethoxymethyl)-1-[4-(2-furyl)-5-methylpyrimidin-2-yl]-N-[(1-methyl-1H-imidazol-5-yl)methyl]-1H-pyrazole-4-carboxamide]
- % AUC reduction in glucose levels (C57B6 mice): 51%

Structure (SMILES): CCOCc1c(C(=O)NCc2cncn2C)cnn1-c1ncc(C)c(-c2cccs2)n1 [5-(Ethoxymethyl)-N-((1-methyl-1H-imidazol-5-yl)methyl)-1-(5-methyl-4-(thiophen-2-yl)pyrimidin-2-yl)-1H-pyrazole-4-carboxamide]
- % AUC reduction in glucose levels (C57B6 mice): 16%

Structure (SMILES): CCCCc1c(C(=O)NCc2cnc3cc(C(=O)OC)ccn23)cnn1-c1ncc(Cl)c(NC2CC2)n1 [Methyl 3-{[({5-butyl-1-[5-chloro-4-(cyclopropylamino)pyrimidin-2-yl]-1H-pyrazol-4-yl}carbonyl)amino]methyl}imidazo[1,2-a]pyridine-7-carboxylate]
- % AUC reduction in glucose levels (C57B6 mice): 24%

Structure (SMILES): CCOCc1c(C(=O)NCc2cncn2C)cnn1-c1ncc(C)c(N2CCCC2)n1 [5-(Ethoxymethyl)-N-[(1-methyl-1H-imidazol-5-yl)methyl]-1-(5-methyl-4-pyrrolidin-1-ylpyrimidin-2-yl)-1H-pyrazole-4-carboxamide]
- % AUC reduction in glucose levels (C57B6 mice): 18%

Structure (SMILES): CCCCc1c(C(=O)NCc2cncn2C)cnn1-c1ncc(Cl)c(NC2CC2)n1 [5-Butyl-1-[5-chloro-4-(cyclopropylamino)pyrimidin-2-yl]-N-[(1-methyl-1H-imidazol-5-yl)methyl]-1H-pyrazole-4-carboxamide]
- % AUC reduction in glucose levels (C57B6 mice): 7%

Structure (SMILES): COCc1c(C(=O)NCc2c(CO)ncn2C)cnn1-c1ncc(C)c(N2CCCCC2)n1 [N-{[4-(Hydroxymethyl)-1-methyl-1H-imidazol-5-yl]methyl}-5-(methoxymethyl)-1-(5-methyl-4-piperidin-1-ylpyrimidin-2-yl)-1H-pyrazole-4-carboxamide]
- % AUC reduction in glucose levels (C57B6 mice): 14%

Structure (SMILES): CCOCc1c(C(=O)NCc2cncn2C)cnn1-c1ncc(C)c(-c2nccs2)n1 [5-(Ethoxymethyl)-N-[(1-methyl-1H-imidazol-5-yl)methyl]-1-[5-methyl-4-(1,3-thiazol-2-yl)pyrimidin-2-yl]-1H-pyrazole-4-carboxamide]
- % AUC reduction in glucose levels (C57B6 mice): 41%

Structure (SMILES): CCCCc1c(C(=O)NCc2cnc3ccccn23)cnn1-c1ncc(Cl)c(NC2CC2)n1 [5-Butyl-1-[5-chloro-4-(cyclopropylamino)pyrimidin-2-yl]-N-(imidazo[1,2-a]pyridin-3-ylmethyl)-1H-pyrazole-4-carboxamide]
- % AUC reduction in glucose levels (C57B6 mice): 32%

Structure (SMILES): CCCc1c(C(=O)NCc2c(CO)ncn2C)cnn1-c1ncc(C)c(-c2ccoc2)n1 [1-[4-(3-Furyl)-5-methylpyrimidin-2-yl]-N-{[4-(hydroxymethyl)-1-methyl-1H-imidazol-5-yl]methyl}-5-propyl-1H-pyrazole-4-carboxamide]
- % AUC reduction in glucose levels (C57B6 mice): 19%

Structure (SMILES): COCCc1c(C(=O)NCc2cncn2C)cnn1-c1ncc(C)c(-c2cccs2)n1 [5-(2-Methoxyethyl)-N-[(1-methyl-1H-imidazol-5-yl)methyl]-1-[5-methyl-4-(2-thienyl)pyrimidin-2-yl]-1H-pyrazole-4-carboxamide]
- % AUC reduction in glucose levels (C57B6 mice): 25%

Structure (SMILES): CCOCc1c(C(=O)NCc2cncn2C)cnn1-c1ncc(C)c(-c2ccccc2)n1 [5-(Ethoxymethyl)-N-[(1-methyl-1H-imidazol-5-yl)methyl]-1-(5-methyl-4-phenylpyrimidin-2-yl)-1H-pyrazole-4-carboxamide]
- % AUC reduction in glucose levels (C57B6 mice): 35%

Structure (SMILES): CCOCc1c(C(=O)NCc2cncn2C)cnn1-c1ncc(C)c(N2CCCCC2)n1 [5-(Ethoxymethyl)-N-((1-methyl-1H-imidazol-5-yl)methyl)-1-(5-methyl-4-(piperidin-1-yl)pyrimidin-2-yl)-1H-pyrazole-4-carboxamide]
- % AUC reduction in glucose levels (C57B6 mice): 42%

Structure (SMILES): COCc1c(C(=O)NCc2c(CO)ncn2C)cnn1-c1ncc(C)c(-c2cccs2)n1 [N-{[4-(Hydroxymethyl)-1-methyl-1H-imidazol-5-yl]methyl}-5-(methoxymethyl)-1-[5-methyl-4-(2-thienyl)pyrimidin-2-yl]-1H-pyrazole-4-carboxamide]
- % AUC reduction in glucose levels (C57B6 mice): 14%

Structure (SMILES): CCCCc1c(C(=O)NCc2c(C)ncn2CC(=O)O)cnn1-c1ncc(Br)c(NC2CCC2)n1 [(5-{[({1-[5-Bromo-4-(cyclobutylamino)pyrimidin-2-yl]-5-butyl-1H-pyrazol-4-yl}carbonyl)amino]methyl}-4-methyl-1H-imidazol-1-yl)acetic acid]
- Increase in Insulin (ob/ob mice): 1.7 ng/mL

Structure (SMILES): CCCCc1c(C(=O)NCc2cncn2CC(=O)O)cnn1-c1ncc(C)c(-c2cccs2)n1 [(5-{[({5-Butyl-1-[5-methyl-4-(2-thienyl)pyrimidin-2-yl]-1H-pyrazol-4-yl}carbonyl)amino]methyl}-1H-imidazol-1-yl)acetic acid]
- Increase in Insulin (ob/ob mice): 3.8 ng/mL

Structure (SMILES): CCCc1c(C(=O)NCc2c(CO)ncn2C)cnn1-c1ncc(C)c(-c2cccs2)n1 [N-{[4-(Hydroxymethyl)-1-methyl-1H-imidazol-5-yl]methyl}-1-[5-methyl-4-(2-thienyl)pyrimidin-2-yl]-5-propyl-1H-pyrazole-4-carboxamide]
- % AUC reduction in glucose levels (C57B6 mice): 35%

Structure (SMILES): CCCCc1c(C(=O)NCc2c(C)ncn2CC(N)=O)cnn1-c1ncc(C)c(-c2cccs2)n1 [N-{[1-(2-Amino-2-oxoethyl)-4-methyl-1H-imidazol-5-yl]methyl}-5-butyl-1-[5-methyl-4-(2-thienyl)pyrimidin-2-yl]-1H-pyrazole-4-carboxamide]
- Increase in Insulin (ob/ob mice): 4 ng/mL

Structure (SMILES): CCCCc1c(C(=O)NCc2c(C)ncn2C(C)(C)C(=O)O)cnn1-c1ncc(C)c(-c2cccs2)n1 [2-(5-{[({5-Butyl-1-[5-methyl-4-(2-thienyl)pyrimidin-2-yl]-1H-pyrazol-4-yl}carbonyl)amino]methyl}-4-methyl-1H-imidazol-1-yl)-2-methylpropanoic acid]
- % AUC reduction in glucose levels (C57B6 mice): 15%

Structure (SMILES): CCOCc1c(C(=O)NCc2c(CO)ncn2C)cnn1-c1ncc(C)c(-c2cccs2)n1 [5-(Ethoxymethyl)-N-{[4-(hydroxymethyl)-1-methyl-1H-imidazol-5-yl]methyl}-1-[5-methyl-4-(2-thienyl)pyrimidin-2-yl]-1H-pyrazole-4-carboxamide]
- % AUC reduction in glucose levels (C57B6 mice): 35%

Structure (SMILES): CCCc1c(C(=O)NCCc2cncn2C)cnn1-c1ncc(C)c(-c2cccs2)n1 [N-[2-(1-Methyl-1H-imidazol-5-yl)ethyl]-1-[5-methyl-4-(2-thienyl)pyrimidin-2-yl]-5-propyl-1H-pyrazole-4-carboxamide]
- Increase in Insulin (ob/ob mice): 9.5 ng/mL

Structure (SMILES): CCCCc1c(C(=O)NCc2c(C)nc3ccccn23)cnn1-c1ncc(C)c(-c2cccs2)n1 [5-Butyl-N-[(2-methylimidazo[1,2-a]pyridin-3-yl)methyl]-1-[5-methyl-4-(2-thienyl)pyrimidin-2-yl]-1H-pyrazole-4-carboxamide]
- % AUC reduction in glucose levels (C57B6 mice): 35%

Structure (SMILES): CCOCc1c(C(=O)NCc2cncn2C)cnn1-c1ncc(C)c(N2CC(F)(F)C(F)(F)C2)n1 [5-(Ethoxymethyl)-N-[(1-methyl-1H-imidazol-5-yl)methyl]-1-[5-methyl-4-(3,3,4,4-tetrafluoropyrrolidin-1-yl)pyrimidin-2-yl]-1H-pyrazole-4-carboxamide]
- % AUC reduction in glucose levels (C57B6 mice): 11%
